Reference: patent US20250099448A1, “HETEROCYCLIC COMPOUNDS” (Hoffmann-La Roche Inc., priority 2022, published 2025)

These molecules were tested against T1, MAGL protein (Homo sapiens, UniProt Q99685) (assay: 2-AG assay: MAGL inhibitory activity by hydrolysis of 2-arachidonoylglycerol to arachidonic acid, followed by mass spectrometry). Settings: 8 μM 2-arachidonoylglycerol, 15 min preincubation, 30 min reaction at RT, RapidFire MS readout.
T1 sequence (Q99685 1-303): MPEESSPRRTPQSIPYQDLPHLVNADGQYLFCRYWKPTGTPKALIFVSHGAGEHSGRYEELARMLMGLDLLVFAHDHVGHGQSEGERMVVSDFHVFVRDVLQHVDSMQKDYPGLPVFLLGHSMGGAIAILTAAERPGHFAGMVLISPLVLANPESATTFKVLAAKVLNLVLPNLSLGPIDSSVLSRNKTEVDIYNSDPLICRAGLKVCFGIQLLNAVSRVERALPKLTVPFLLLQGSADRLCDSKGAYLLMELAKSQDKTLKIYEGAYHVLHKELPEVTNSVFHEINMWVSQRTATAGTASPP
Type: biochemical
Method in brief: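 MAGL was preincubated 15 min at RT with compound (12.5 to […], 3-fold steps) in 50 mM TRIS, 1 mM EDTA, 0.01% Tween-20, 2.5% DMSO. The reaction ran 30 min at RT with 8 μM 2-AG. Arachidonic acid was quantified by RapidFire SPE-MS/MS against a d8-arachidonic acid internal standard.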

Structure (SMILES) | IC50 [nM]
O=C(N1CC(C23CC(c4cc(C5CC5)n[nH]4)(C2)C3)C1)N1CC2(CC(c3nc(C4CC4)n[nH]3)C2)C1 [compound 514] | 0.47
Cc1cc(C(F)F)n(CC2CC3(C2)CN(C(=O)N2CC4(CC(c5nc(C6CC6)n[nH]5)C4)C2)C3)n1 [compound 883] | 0.39
O=C(N1CC(c2cnc(CNC3(C(F)(F)F)CC3)cn2)C1)N1CC2(CC(c3nc(C4CC4)n[nH]3)C2)C1 [compound 443] | 2.47
O=C(N1CC2(CC(CNC3(C(F)(F)F)COC3)C2)C1)N1CC2(CC(c3nnc(C4CC4)[nH]3)C2)C1 [compound 354] | 5.39
O=C(N1CC(c2ccc(C3(S(=O)(=O)C(F)(F)F)CC3)cc2)C1)N1CC2(CC(c3nc(C4CC4)n[nH]3)C2)C1 [compound 968] | 0.05
O=C(N1CCN(Cc2ccc(C(F)(F)F)cn2)CC1)N1CC2(CC(c3nnc(C4CC4)[nH]3)C2)C1 [Example 876] | 806
O=C(N1CC2(CC(Cc3cnc(C(F)(F)F)nc3)C2)C1)N1CC2(CC(c3nnc(C4CC4)[nH]3)C2)C1 [compound 20] | 0.74
O=C(N1CC2(CC(c3nnc(C4CC4)[nH]3)C2)C1)N1CC2(C1)CN(S(=O)(=O)c1cc(F)cc(C(F)(F)F)c1)C2 [compound 101] | 3.7
O=C(N1CC2(CCC(Oc3ccc(C(F)(F)F)nn3)CC2)C1)N1CC2(CC(c3nnc(C4CCC4)[nH]3)C2)C1 [compound 52] | 18.7
O=C(N1CC2(CC(CNC3(C(F)(F)F)CC3)C2)C1)N1CC2(CC(c3nnc(C4CC4)[nH]3)C2)C1 [compound 54] | 2.8
O=C(NCC1(C(F)(F)F)CC1)C1CC2(C1)CN(C(=O)N1CC3(CC(c4nnc(C5CC5)[nH]4)C3)C1)C2 [compound 359] | 28.4
Cn1ncc(CC2CC3(C2)CN(C(=O)N2CC4(CC(c5nc(C6(O)CC6)n[nH]5)C4)C2)C3)c1C(F)(F)F [compound 815] | 0.6
O=C(N1CC2(CC(c3nnc(C4CCC4)[nH]3)C2)C1)N1CC2(C1)CN(S(=O)(=O)c1ccc(OC(F)(F)F)cc1)C2 [compound 93] | 143
CP(C)(=O)Cc1ccc(C2CN(C(=O)N3CC4(CC(c5nnc(C6CC6)[nH]5)C4)C3)C2)cc1 [compound 381] | 0.69
O=C(N1CC(NCc2ccc(C(F)(F)F)c(F)c2)C1)N1CC2(CC(c3nnc(C4CC4)[nH]3)C2)C1 [compound 193] | 45.5
O=C(N1CC2(CC(c3nnc(C4CC4)[nH]3)C2)C1)N1CC2(C1)CN(S(=O)(=O)c1ccc(F)cc1Cl)C2 [compound 107] | 3.14
O=C(N1CC2(CC(c3nc(C4CC4)n[nH]3)C2)C1)N1CC2(CN(Cc3ccn(CCC(F)(F)F)n3)C2)C1 [compound 972] | 81.1
O=C(N1CC2(CC(c3nc(C4(F)CC4)n[nH]3)C2)C1)N1CC2(CN(Cc3ncc(C(F)(F)F)s3)C2)C1 [compound 598] | 1.89
O=C(N1CC(c2ccc(-n3cnc(C(F)(F)F)n3)cc2)C1)N1CC2(CC(c3nnc(C4CC4)[nH]3)C2)C1 [compound 930] | 0.39
O=C(N1CC(c2ccc(N3CCC(C(F)(F)F)CC3=O)cc2)C1)N1CC2(CC(c3nnc(C4CC4)[nH]3)C2)C1 (single isomer, unassigned) [compound 279] | 5.16

Structure (SMILES) | IC50 [nM]
O=C(N1CC2(CC(c3nnc(C4CC4)[nH]3)C2)C1)N1CC2(CCN(Cc3cnc(C(F)(F)F)cn3)C2)C1 [compound 184] | 11.7
O=C(N1CC2(CC(Cc3ccc(S(=O)(=O)C4CC4)cc3)C2)C1)N1CC2(CC(c3nc(C4CC4)n[nH]3)C2)C1 [compound 859] | 0.19
O=C(N1CC(c2ccc(N3CC[C@@H](C(F)(F)F)C3)nc2)C1)N1CC2(CC(c3nnc(C4CC4)[nH]3)C2)C1 [compound 268] | 0.35
O=C(N1CC2(CC(Cc3ncc(Cl)cc3F)C2)C1)N1CC2(CC(c3nc(C4CC(F)(F)C4)n[nH]3)C2)C1 [compound 737] | 12
O=C(N1CC2(CC(Cc3cccc(S(=O)(=O)C(F)(F)F)c3)C2)C1)N1CC2(CC(c3nc(C4COC4)n[nH]3)C2)C1 [compound 728] | 4.19
O=C(N1CC2(CC(Cn3cnc(C(F)(F)F)n3)C2)C1)N1CC2(CC(c3nnc(C4CC4)[nH]3)C2)C1 [compound 71] | 1.74
O=C(N1CC2(CC(Cc3cnc(C(F)(F)F)cn3)C2)C1)N1CC2(CC(c3nc(C4COC4)n[nH]3)C2)C1 [compound 761] | 147
O=C(N1CC2(CC(c3nc(C4CC4)n[nH]3)C2)C1)N1CC2(CCN(Cc3ccc(C(F)(F)F)nc3)C2)C1 [compound 804] | 7.16
O=C(N1CC(c2ccc(-n3nc(C4CC4)cc3C(F)F)cc2)C1)N1CC2(CC(c3nnc(C4CC4)[nH]3)C2)C1 [compound 875] | 0.33
O=C(N1CC2(CC(Oc3cc(C(F)(F)F)ccn3)C2)C1)N1CC2(CC(c3nc(C4CC4)n[nH]3)C2)C1 [compound 969] | 0.42
O=C(N1CC2(CCC(Oc3ccc(C(F)(F)F)nn3)CC2)C1)N1CC2(CC(c3nnc(C4CC4)[nH]3)C2)C1 [compound 51] | 1.77
O=C(N1CC(c2ccc(N3CC4(CCOC4)C3)nc2)C1)N1CC2(CC(c3nnc(C4CC4)[nH]3)C2)C1 [compound 290] | 21
Cn1ncc(C(F)(F)F)c1CN1CCC2(CC1)CN(C(=O)N1CC3(CC(c4nc(C5CC5)n[nH]4)C3)C1)C2 [compound 461] | 1
O=C(N1CC2(CC(Cc3ccc4cnc(C(F)(F)F)n4c3)C2)C1)N1CC2(CC(c3nc(C4CC4)n[nH]3)C2)C1 [compound 992] | 0.16
O=C(N1CC2(CC(c3nc(C4(O)CC4)n[nH]3)C2)C1)N1CC2(CCN(Cc3cccc(S(=O)(=O)C(F)(F)F)c3)C2)C1 [compound 482] | 3.39
O=C(N1CC2(CC(c3nc(C4CC4)n[nH]3)C2)C1)N1CC2(CN(Cc3ccc(S(=O)(=O)C(F)(F)F)cc3F)C2)C1 [compound 554] | 0.56
CS(=O)(=O)c1ccccc1-c1ccc(C2CN(C(=O)N3CC4(CC(c5nc(C6(O)CC6)n[nH]5)C4)C3)C2)cc1 [Example 781, [6-[3-(1-hydroxycyclopropyl)-1H-1,2,4-triazol-5-yl]-2-azaspiro[3.3]heptan-2-yl]-[3-[4-(2-mesylphenyl)phenyl]azetidin-1-yl]methanone] | 0.93
O=C(N1CC(C23CC(Cc4nnc(C5CC5)o4)(C2)C3)C1)N1CC2(CC(c3nc(C4CC4)n[nH]3)C2)C1 [compound 928] | 2.53
O=C(N1CC2(CC(c3nc(C4(F)CC4)n[nH]3)C2)C1)N1CC2(CN(Cc3cc(C(F)(F)F)ns3)C2)C1 [compound 531] | 7.53
N#Cc1c(OC2CN(C(=O)N3CC4(CC(c5nnc(C6CC6)[nH]5)C4)C3)C2)cccc1C1CC1 [compound 310] | 2.3

Structure (SMILES) | IC50 [nM]
O=C(N1CC2(CC(c3nc(C4CC4)n[nH]3)C2)C1)N1CC2(CN(Cc3cc(C(F)(F)F)on3)C2)C1 [compound 609] | 8.32
O=C(N1CC(C23CC(S(=O)(=O)c4ccc(C(F)(F)F)cc4)(C2)C3)C1)N1CC2(CC(c3nc(C4CC4)n[nH]3)C2)C1 [compound 722] | 57.1
O=C(N1CC2(CC(Cc3ccc(S(=O)(=O)C(F)(F)F)cn3)C2)C1)N1CC2(CC(c3nc(C4CC4)n[nH]3)C2)C1 [compound 813] | 0.18
O=C(N1CC(C23CC(c4ccc(OC(F)(F)F)cc4)(C2)C3)C1)N1CC2(CC(c3nc(C4CC4)n[nH]3)C2)C1 [compound 490] | 0.05
O=C(N1CC2(CC(Cc3ccc(Cl)cn3)C2)C1)N1CC2(CC(c3ncn[nH]3)C2)C1 [compound 831] | 1220
O=C(N1CC2(CC(c3nnc(C4CC4)[nH]3)C2)C1)N1CC2(C1)CN(c1cnc(C(F)(F)F)cn1)C2 [compound 218] | 172
O=C(N1CC(c2ccc(N3CC(C(F)(F)F)C3)cc2)C1)N1CC2(CC(c3nnc(C4CC4)[nH]3)C2)C1 [compound 261] | 0.36
O=C(N1CC2(CC(Cc3cncc(Cl)c3)C2)C1)N1CC2(CC(c3nnc(C4CC4)[nH]3)C2)C1 [compound 113] | 0.09
O=C(N1CC2(CC(Cn3ccc(C(F)(F)F)cc3=O)C2)C1)N1CC2(CC(c3nc(C4CC4)n[nH]3)C2)C1 [compound 766] | 2.83
O=C(N1CC2(CC(Cn3ccnc3C(F)(F)F)C2)C1)N1CC2(CC(c3nc(C4CC4)n[nH]3)C2)C1 [compound 453] | 1.73
O=C(N1CC2(CC(Cc3ccc(F)cc3C(F)(F)F)C2)C1)N1CC2(CC(c3nc(C4COC4)n[nH]3)C2)C1 [compound 754] | 0.43
O=C(N1CC(c2ccc(CC(F)(F)F)cc2)C1)N1CC2(CC(c3nnc(C4(O)CC4)[nH]3)C2)C1 [compound 244] | 7.96
O=C(N1CC(c2ccc(-n3nc(C(F)F)cc3C3CC3)cc2)C1)N1CC2(CC(c3nnc(C4CC4)[nH]3)C2)C1 [compound 839] | 0.27
O=C(N1CC2(CC(Cc3ncc(Cl)cc3F)C2)C1)N1CC2(CC(c3nc(C4(O)CC4)n[nH]3)C2)C1 [compound 676] | 2.94
O=C(N1CC(OCc2ccc(OC(F)(F)F)cc2)C1)N1CC2(CC(c3nnc(C4CC4)[nH]3)C2)C1 [compound 315] | 4.93
NC(=O)c1ccccc1-c1ccc(C2CN(C(=O)N3CC4(CC(c5nnc(C6CC6)[nH]5)C4)C3)C2)cc1 [compound 340] | 1.09
N=S(=O)(c1cccc(CC2CC3(C2)CN(C(=O)N2CC4(CC(c5nc(C6(O)CC6)n[nH]5)C4)C2)C3)c1)C(F)(F)F (centres unmarked) [compound 532] | 0.21
O=C(N1CC2(CC(Cc3cncc(S(=O)(=O)C(F)(F)F)c3)C2)C1)N1CC2(CC(c3nc(C4CC4)n[nH]3)C2)C1 [compound 731] | 0.18
O=C(N1CC(c2ccc(N3CCC(O)(C(F)(F)F)C3)nc2)C1)N1CC2(CC(c3nnc(C4CC4)[nH]3)C2)C1 (centres unmarked) [compound 269] | 2.29
